{"source": "ChEMBL document CHEMBL4622979", "about": "“Non-rigid Diarylmethyl Analogs of Baloxavir as Cap-Dependent Endonuclease Inhibitors of Influenza Viruses” (J Med Chem, 2020)", "key": {"[1]": {"experiment": "AUClast in CD1 mouse blood assessed as (12aR)-12-(Diphenylmethyl)-7-hydroxy-3,4,12,12a-tetrahydro-1H-[1,4]oxazino[3,4-c]pyrido[2,1-f ][1,2,4]triazine-6,8-dione level at 15 mg/kg, po administered as single dose measured up to 24 hrs by LC-MS/MS analysis", "type": "ADME, organism-based", "details": "in vivo"}, "[2]": {"experiment": "Cmax in CD1 mouse muscle assessed as (12aR)-12-(Diphenylmethyl)-7-hydroxy-3,4,12,12a-tetrahydro-1H-[1,4]oxazino[3,4-c]pyrido[2,1-f ][1,2,4]triazine-6,8-dione level at 15 mg/kg, po administered as single dose measured up to 24 hrs by LC-MS/MS analysis", "type": "ADME, organism-based, Muscle tissue", "set-up": "dose 15 mg/kg, route oral", "details": "in vivo"}, "[3]": {"experiment": "Half life in CD1 mouse plasma assessed as (12aR)-12-(Diphenylmethyl)-7-hydroxy-3,4,12,12a-tetrahydro-1H-[1,4]oxazino[3,4-c]pyrido[2,1-f ][1,2,4]triazine-6,8-dione level at 15 mg/kg, po administered as single dose measured up to 24 hrs by LC-MS/MS analysis", "type": "ADME, organism-based", "details": "in vivo"}, "[4]": {"experiment": "Tmax in CD1 mouse lung assessed as (12aR)-12-(Diphenylmethyl)-7-hydroxy-3,4,12,12a-tetrahydro-1H-[1,4]oxazino[3,4-c]pyrido[2,1-f ][1,2,4]triazine-6,8-dione level at 15 mg/kg, po administered as single dose measured up to 24 hrs by LC-MS/MS analysis", "type": "ADME, organism-based", "details": "in vivo"}, "[5]": {"experiment": "Acute toxicity in CD1 mouse assessed as effect on kidney at 2000 mg/kg, po measured after 2 weeks by macroscopic analysis", "type": "organism-based", "details": "in vivo, 336 h"}, "[6]": {"experiment": "Tmax in CD1 mouse heart assessed as (12aR)-12-(Diphenylmethyl)-7-hydroxy-3,4,12,12a-tetrahydro-1H-[1,4]oxazino[3,4-c]pyrido[2,1-f ][1,2,4]triazine-6,8-dione level at 15 mg/kg, po administered as single dose measured up to 24 hrs by LC-MS/MS analysis", "type": "ADME, organism-based", "details": "in vivo"}, "[7]": {"experiment": "Cytotoxicity against human HepG2 cells assessed as reduction in cell viability measured after 24 hrs in presence of glucose by MTT assay", "type": "cell-based"}, "[8]": {"experiment": "Cmax in CD1 mouse lung assessed as (12aR)-12-(Diphenylmethyl)-7-hydroxy-3,4,12,12a-tetrahydro-1H-[1,4]oxazino[3,4-c]pyrido[2,1-f ][1,2,4]triazine-6,8-dione level at 15 mg/kg, po administered as single dose measured up to 24 hrs by LC-MS/MS analysis", "type": "ADME, organism-based", "set-up": "dose 15 mg/kg, route oral", "details": "in vivo"}, "[9]": {"experiment": "AUClast in CD1 mouse lung assessed as (12aR)-12-(Diphenylmethyl)-7-hydroxy-3,4,12,12a-tetrahydro-1H-[1,4]oxazino[3,4-c]pyrido[2,1-f ][1,2,4]triazine-6,8-dione level at 15 mg/kg, po administered as single dose measured up to 24 hrs by LC-MS/MS analysis", "type": "ADME, organism-based", "details": "in vivo"}, "[10]": {"experiment": "Ratio of AUClast in CD1 mouse muscle to plasma assessed as (12aR)-12-(Diphenylmethyl)-7-hydroxy-3,4,12,12a-tetrahydro-1H-[1,4]oxazino[3,4-c]pyrido[2,1-f ][1,2,4]triazine-6,8-dione level at 15 mg/kg, po administered as single dose measured up to 24 hrs by LC-MS/MS analysis", "type": "ADME, organism-based", "details": "other tissue"}, "[11]": {"experiment": "Elimination rate constant in CD1 mouse kidney assessed as (12aR)-12-(Diphenylmethyl)-7-hydroxy-3,4,12,12a-tetrahydro-1H-[1,4]oxazino[3,4-c]pyrido[2,1-f ][1,2,4]triazine-6,8-dione level at 15 mg/kg, po administered as single dose measured up to 24 hrs by LC-MS/MS analysis", "type": "ADME, organism-based", "details": "in vivo"}, "[12]": {"experiment": "AUClast in CD1 mouse plasma assessed as (12aR)-12-(Diphenylmethyl)-7-hydroxy-3,4,12,12a-tetrahydro-1H-[1,4]oxazino[3,4-c]pyrido[2,1-f ][1,2,4]triazine-6,8-dione level at 15 mg/kg, po administered as single dose by LC-MS/MS analysis", "type": "ADME, organism-based", "set-up": "dose 15 mg/kg, time 0 - last, route oral", "details": "in vivo"}, "[13]": {"experiment": "MRTlast in CD1 mouse kidney assessed as (12aR)-12-(Diphenylmethyl)-7-hydroxy-3,4,12,12a-tetrahydro-1H-[1,4]oxazino[3,4-c]pyrido[2,1-f ][1,2,4]triazine-6,8-dione level at 15 mg/kg, po administered as single dose measured up to 24 hrs by LC-MS/MS analysis", "type": "ADME, organism-based", "details": "in vivo"}, "[14]": {"experiment": "AUCinfinity in CD1 mouse kidney assessed as (12aR)-12-(Diphenylmethyl)-7-hydroxy-3,4,12,12a-tetrahydro-1H-[1,4]oxazino[3,4-c]pyrido[2,1-f ][1,2,4]triazine-6,8-dione level at 15 mg/kg, po administered as single dose measured up to 24 hrs by LC-MS/MS analysis", "type": "ADME, organism-based", "set-up": "dose 15 mg/kg, time infinity, route oral", "details": "in vivo"}, "[15]": {"experiment": "Ratio of AUClast in CD1 mouse liver to plasma assessed as (12aR)-12-(Diphenylmethyl)-7-hydroxy-3,4,12,12a-tetrahydro-1H-[1,4]oxazino[3,4-c]pyrido[2,1-f ][1,2,4]triazine-6,8-dione level at 15 mg/kg, po administered as single dose measured up to 24 hrs by LC-MS/MS analysis", "type": "ADME, organism-based", "details": "other tissue"}, "[16]": {"experiment": "AUClast in CD1 mouse spleen assessed as (12aR)-12-(Diphenylmethyl)-7-hydroxy-3,4,12,12a-tetrahydro-1H-[1,4]oxazino[3,4-c]pyrido[2,1-f ][1,2,4]triazine-6,8-dione level at 15 mg/kg, po administered as single dose measured up to 24 hrs by LC-MS/MS analysis", "type": "ADME, organism-based", "details": "in vivo"}, "[17]": {"experiment": "Elimination rate constant in CD1 mouse brain assessed as baloxavir acid level at 15 mg/kg, po administered as single dose measured up to 24 hrs by LC-MS/MS analysis", "type": "ADME, organism-based", "details": "in vivo"}, "[18]": {"experiment": "Tmax in CD1 mouse muscle assessed as baloxavir acid level at 15 mg/kg, po administered as single dose measured up to 24 hrs by LC-MS/MS analysis", "type": "ADME, organism-based, Muscle tissue", "details": "in vivo"}, "[19]": {"experiment": "Half life in CD1 mouse heart assessed as baloxavir acid level at 15 mg/kg, po administered as single dose measured up to 24 hrs by LC-MS/MS analysis", "type": "ADME, organism-based", "details": "in vivo"}, "[20]": {"experiment": "AUClast in CD1 mouse heart assessed as baloxavir acid level at 15 mg/kg, po administered as single dose measured up to 24 hrs by LC-MS/MS analysis", "type": "ADME, organism-based", "details": "in vivo"}, "[21]": {"experiment": "MRTlast in CD1 mouse spleen assessed as baloxavir acid level at 15 mg/kg, po administered as single dose measured up to 24 hrs by LC-MS/MS analysis", "type": "ADME, organism-based", "details": "in vivo"}, "[22]": {"experiment": "Tmax in CD1 mouse liver assessed as baloxavir acid level at 15 mg/kg, po administered as single dose measured up to 24 hrs by LC-MS/MS analysis", "type": "ADME, organism-based", "details": "in vivo"}, "[23]": {"experiment": "AUCinfinity in CD1 mouse blood assessed as baloxavir acid level at 15 mg/kg, po administered as single dose measured up to 24 hrs by LC-MS/MS analysis", "type": "ADME, organism-based", "set-up": "dose 15 mg/kg, time infinity, route oral", "details": "in vivo"}, "[24]": {"experiment": "Tmax in CD1 mouse heart assessed as baloxavir acid level at 15 mg/kg, po administered as single dose measured up to 24 hrs by LC-MS/MS analysis", "type": "ADME, organism-based", "details": "in vivo"}, "[25]": {"experiment": "Elimination rate constant in CD1 mouse heart assessed as baloxavir acid level at 15 mg/kg, po administered as single dose measured up to 24 hrs by LC-MS/MS analysis", "type": "ADME, organism-based", "details": "in vivo"}}, "data": [{"compound": "COC(=O)OCOc1c2n(ccc1=O)N(C(c1ccccc1)c1ccccc1)[C@@H]1COCCN1C2=O", "values": [{"measurement": "AUClast", "setting": "[1]", "value": 2746, "unit": "ng·h/g"}, {"measurement": "Cmax", "setting": "[2]", "value": 2005, "unit": "ng/g"}, {"measurement": "t1/2", "setting": "[3]", "value": 1.58, "unit": "h"}, {"measurement": "Tmax", "setting": "[4]", "value": 0.5, "unit": "h"}, {"measurement": "Activity", "setting": "[5]", "value": "Non-Toxic"}, {"measurement": "Tmax", "setting": "[6]", "value": 0.5, "unit": "h"}, {"measurement": "CC50 at 24 h", "setting": "[7]", "value": 51, "unit": "µM"}, {"measurement": "Cmax", "setting": "[8]", "value": 2847, "unit": "ng/g"}, {"measurement": "AUClast", "setting": "[9]", "value": 8320, "unit": "ng·h/g"}, {"measurement": "Ratio AUC", "setting": "[10]", "value": 2.26}, {"measurement": "Kel", "setting": "[11]", "value": 0.27, "unit": "h⁻¹"}, {"measurement": "AUClast", "setting": "[12]", "value": 3935, "unit": "ng·h/mL"}, {"measurement": "MRTlast", "setting": "[13]", "value": 2.5, "unit": "h"}, {"measurement": "AUC", "setting": "[14]", "value": 18087, "unit": "ng·h/g"}, {"measurement": "Ratio AUC", "setting": "[15]", "value": 10.6}, {"measurement": "AUClast", "setting": "[16]", "value": 4545, "unit": "ng·h/g"}]}, {"compound": "COC(=O)OCOc1c2n(ccc1=O)N([C@@H]1c3ccccc3SCc3c1ccc(F)c3F)[C@@H]1COCCN1C2=O", "note": "[BALOXAVIR MARBOXIL]", "values": [{"measurement": "Kel", "setting": "[17]", "value": 0.06, "unit": "h⁻¹"}, {"measurement": "Tmax", "setting": "[18]", "value": 2, "unit": "h"}, {"measurement": "t1/2", "setting": "[19]", "value": 3.4, "unit": "h"}, {"measurement": "AUClast", "setting": "[20]", "value": 8959, "unit": "ng·h/g"}, {"measurement": "MRTlast", "setting": "[21]", "value": 5.54, "unit": "h"}, {"measurement": "Tmax", "setting": "[22]", "value": 2, "unit": "h"}, {"measurement": "AUC", "setting": "[23]", "value": 1390, "unit": "ng·h/g"}, {"measurement": "Tmax", "setting": "[24]", "value": 2, "unit": "h"}, {"measurement": "Kel", "setting": "[25]", "value": 0.2, "unit": "h⁻¹"}]}]}
